Experimental data: PubChem BioAssay (NCI)
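Cultured in 96-well plates, cells were exposed to test compound for 48 hours across five concentrations. Here, GI50 denotes the concentration required for 50% inhibition of growth. TGI: total growth inhibition.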

How the values were obtained:
Assay in all cases: NCI anticancer screen, dose series, 48 h
786-0 renal = test system: 786-0 renal
A498 renal = test system: A498 renal
A549 NSCLC = test system: A549 NSCLC
ACHN renal = test system: ACHN renal
BT-549 breast = test system: BT-549 breast
CAKI-1 renal = test system: CAKI-1 renal
CCRF-CEM leukemia = test system: CCRF-CEM leukemia
COLO 205 colon = test system: COLO 205 colon
DU-145 prostate = test system: DU-145 prostate
EKVX NSCLC = test system: EKVX NSCLC
HCC-2998 colon = test system: HCC-2998 colon
HCT-116 colon = test system: HCT-116 colon
HCT-15 colon = test system: HCT-15 colon
HOP-62 NSCLC = test system: HOP-62 NSCLC
HOP-92 NSCLC = test system: HOP-92 NSCLC
HS 578T breast = test system: HS 578T breast
HT29 colon = test system: HT29 colon
IGROV1 ovarian = test system: IGROV1 ovarian
K-562 leukemia = test system: K-562 leukemia
KM12 colon = test system: KM12 colon
LOX IMVI melanoma = test system: LOX IMVI melanoma
M14 melanoma = test system: M14 melanoma
MALME-3M melanoma = test system: MALME-3M melanoma
MCF7 breast = test system: MCF7 breast
MDA-MB-231 breast = test system: MDA-MB-231 breast
MDA-MB-435 = test system: MDA-MB-435
MOLT-4 leukemia = test system: MOLT-4 leukemia
NCI-H23 lung = test system: NCI-H23 lung

SMILES: N#C/C(=C\c1cn(-c2ccccc2)c2ccccc12)C(=O)O
- GI50 (786-0 renal): 61.2 µM
- TGI (786-0 renal): > 100 µM
- GI50 (A498 renal): 13.4 µM
- TGI (A498 renal): 35 µM
- GI50 (A549 NSCLC): 42.9 µM
- TGI (A549 NSCLC): > 100 µM
- GI50 (ACHN renal): 44 µM
- TGI (ACHN renal): > 100 µM
- GI50 (BT-549 breast): 36.6 µM
- TGI (BT-549 breast): > 100 µM
- GI50 (CAKI-1 renal): 63.1 µM
- TGI (CAKI-1 renal): > 100 µM
- GI50 (CCRF-CEM leukemia): 99 µM
- TGI (CCRF-CEM leukemia): > 100 µM
- GI50 (COLO 205 colon): 85.9 µM
- TGI (COLO 205 colon): > 100 µM
- GI50 (DU-145 prostate): 44.2 µM
- TGI (DU-145 prostate): > 100 µM
- GI50 (EKVX NSCLC): 34.2 µM
- TGI (EKVX NSCLC): > 100 µM
- GI50 (HCC-2998 colon): 49.5 µM
- TGI (HCC-2998 colon): > 100 µM
- GI50 (HCT-116 colon): 34.7 µM
- TGI (HCT-116 colon): > 100 µM
- GI50 (HCT-15 colon): 30.7 µM
- TGI (HCT-15 colon): > 100 µM
- GI50 (HOP-62 NSCLC): 39.2 µM
- TGI (HOP-62 NSCLC): > 100 µM
- GI50 (HOP-92 NSCLC): 33.9 µM
- TGI (HOP-92 NSCLC): > 100 µM
- GI50 (HS 578T breast): 32.2 µM
- TGI (HS 578T breast): > 100 µM
- GI50 (HT29 colon): 53.1 µM
- TGI (HT29 colon): > 100 µM
- GI50 (IGROV1 ovarian): 49.3 µM
- TGI (IGROV1 ovarian): > 100 µM
- GI50 (K-562 leukemia): 71.7 µM
- TGI (K-562 leukemia): > 100 µM
- GI50 (KM12 colon): 30.1 µM
- TGI (KM12 colon): > 100 µM
- GI50 (LOX IMVI melanoma): 3.71 µM
- TGI (LOX IMVI melanoma): > 100 µM
- GI50 (M14 melanoma): 61.2 µM
- TGI (M14 melanoma): > 100 µM
- GI50 (MALME-3M melanoma): > 100 µM
- TGI (MALME-3M melanoma): > 100 µM
- GI50 (MCF7 breast): 27.4 µM
- TGI (MCF7 breast): > 100 µM
- GI50 (MDA-MB-231 breast): 44.2 µM
- TGI (MDA-MB-231 breast): > 100 µM
- GI50 (MDA-MB-435): 39.4 µM
- TGI (MDA-MB-435): > 100 µM
- GI50 (MOLT-4 leukemia): 72.8 µM
- TGI (MOLT-4 leukemia): > 100 µM
- GI50 (NCI-H23 lung): 35.7 µM
